# Source: PubChem BioAssay AID1996
# Details: buffer; pH 7.4; 200.0 µM
row,solubility kinetic [µg/mL],SMILES
1,1.2,O/N=C/c1ccnc(SCc2ccc(Cl)cc2)n1
2,4.5,O=C(/C=C/c1ccccc1[N+](=O)[O-])OC1CCCCC1=O (configuration not stated)
3,> 51.2,NS(=O)(=O)c1ccc(NC(=O)CCC(=O)N2CCOCC2)cc1
4,> 48.5,Cc1ccc(NC(=O)CN2CCN(Cc3ccccc3)CC2)cc1
5,31.1,NC(=O)C1CCN(C(=O)CSc2nc(O)cc(=O)[nH]2)CC1
6,38.7,COc1cc(C2NC(=O)NC(C)=C2C(C)=O)cc(OC)c1OC (configuration not stated)
7,> 46.9,COc1ccc(Cl)cc1C(=O)NCCCN1CCOCC1
8,> 79.4,CCCCn1c(N)c(N(CCOC)C(=O)CN(C)CC(=O)Nc2ccc(Cl)c(Cl)c2)c(=O)[nH]c1=O
9,> 40.4,Cc1ccccc1C(=O)Nc1ccc2c(c1)OCCO2
10,37.6,Cc1ccc(S(=O)(=O)CC(=O)Nc2cc(C)on2)cc1
11,> 39,CNC(=O)/C(=C\c1ccco1)NC(=O)c1ccco1
12,> 48.5,Cc1c(C)n(-c2ccccc2)c2ncnc(NCCCN(C)C)c12
13,11.8,COc1cc(C(=O)NCC(=O)OCc2ccc(F)cc2)cc(OC)c1OC
14,> 51.8,CCn1cnnc1SCC(=O)Nc1ccccc1C(=O)NC1CC1
15,45.6,CC1(C)CC(=O)C2=C(C1)NC(=O)NC2c1ccccc1Cl (configuration not stated)
16,2.2,Cc1ccc(C)c(NCC(=O)c2ccc(Cl)cc2)c1
17,> 66.1,N#Cc1ccc(C(=O)Nc2cc(S(=O)(=O)N3CCOCC3)ccc2N2CCCC2)cc1
18,> 45.9,CN[C@H]1CC[C@@H](c2ccc(Cl)c(Cl)c2)c2ccccc21
19,11.3,COc1ccc(C(=O)OCC(=O)c2ccc3c(c2)NC(=O)CO3)cc1S(=O)(=O)N1CCOCC1
20,< 0.6,CC(=O)c1ccc(NCCC(=O)c2ccccc2)cc1
21,4.3,Clc1ccc(CN2CCC(c3ccccc3)CC2)cc1
22,> 37.4,CC1(/[N+]([O-])=C\c2ccccc2F)CCCCC1=O (configuration not stated)
23,> 50.8,COCCCNS(=O)(=O)c1cc2c3c(c1)C(C)C(=O)N3CCC2 (configuration not stated)

row,solubility kinetic [µg/mL],SMILES
1,49.4,Cc1ccc2c(CN3CCN(Cc4ccccc4)CC3)cc(=O)oc2c1
2,10.1,Cn1c(CNC(=O)c2ccccc2F)cc2ccccc21
3,6.8,O=C1NC2(CCCCCC2)C(=O)N1Cc1ccccc1Cl
4,> 50.4,CCC(=O)Nc1cc(C(=O)O)ccc1Sc1ccc(Cl)cc1
5,31.2,CCN(CC)CCCNC(=O)/C=C/C(=O)O
6,> 40.7,CC(C(=O)O)n1c2ccccc2c2cnn(C)c(=O)c21 (configuration not stated)
7,4.9,CCc1sc(C(=O)Nc2ccc3c(c2)OCO3)cc1C
8,7.2,O=C(c1ccc(Cl)cc1)N1CCc2ccccc21
9,2.5,Cc1ccc(CNc2nc(-c3cccnc3)nc3ccccc23)cc1
10,32.3,O=C1CNC(=S)N1CCc1ccc(O)c(O)c1
11,< 0.6,Cc1cc2c(cc1C)C(c1ccccc1F)CC(=O)N2 (configuration not stated)
12,> 27.6,CSc1nc(N)nc(C(C)C)n1
13,42.8,O=[N+]([O-])c1cccc(S(=O)(=O)NC2CC3CCC2C3)c1 (configuration not stated)
14,> 47.9,CC(=O)Nc1ccc(S(=O)(=O)NC(C)c2ccncc2)cc1 (configuration not stated)
15,37.1,CCOC(=O)C1(Cc2ccccc2)C(=O)Nc2ccccc21 (configuration not stated)
16,> 53,O=C(O)COCC(=O)Nc1ccc2c(c1)ncn2CCc1ccccc1
17,23.9,Cc1ccc(S(=O)(=O)CCC(=O)Nc2cccc(Cl)c2)cc1
18,11.2,COC(=O)c1ccc(C2C(C#N)=C(N)Oc3cc(N)ccc32)cc1 (configuration not stated)
19,> 43,O=S(=O)(NC1=NCCCCC1)c1ccc(Cl)cc1
20,> 31.8,NS(=O)(=O)Cc1noc2ccccc12
21,> 48.6,CC(CCc1ccc(O)cc1)NCc1ccc(Cl)cc1Cl (configuration not stated)
22,47.4,O=C1CN(C(=O)CNC(=O)c2ccc(Cl)cc2Cl)CCN1
23,> 74.2,COc1ccc(S(=O)(=O)N2CCOCC2)cc1NC(=O)CN(C)CC(=O)Nc1cccc(F)c1

row,SMILES,solubility kinetic [µg/mL]
1,O=Cc1cn(Cc2ccc(Br)cc2)c2ccccc12,< 0.7
